Assay results published in patent US4088772A, “Methanodibenzocycloheptapyrroles” (E. I. Du Pont de Nemours and Company, priority 1975, dated 1978).
Like-named read-outs stand apart in the source and are kept apart here.

Tests used:
in vivo = settings: mouse, in vivo, po
Protocol: (§1) Groups of five Carworth CF1 S female mice, 16-20 g each, were fasted 16-22 hours before use. The mice were put in opaque plastic "shoe-box" cages 15-30 min. before injection, and then treated orally with 4, 12, 36, 108 and 324 mg/kg of the compound to be tested as a 13 mg/ml solution in 1% aqueous distilled water solution of methylcellulose (Methocel®). Each dose was given in a standard volume of 0.45 ml. Observations were made at 0.5, 2 and 24 hours after dosing. ED50 values were calculated for each parameter including death (LD50). The ED50 and LD50 values are the doses at which 50% of the naimals would be expected to respond.
(§2) The mouse is placed on a stainless steel wire mesh screen (8 × 12 inches, 3 mesh per inch, 1/4 inch mesh openings) "shoe-box" lid (1 inch high) and is observed for normal activities, such as nose movements, head movements with apparent visual examination of the area, and/or walking around on the screen. Absence of or marked depression of these activities for 5 seconds constitutes loss of exploratory activity.
(§3) The mouse is picked up by the tail and placed on the screen with its head facing the observer. Bilateral eyelid closure of 50% or more two seconds after placement is considered ptosis.
(§4) The mouse is placed with its front paws on the edge of a stainless steel "shoe-box" cover, 1 inch high, covered with adhesive tape. Failure to remove both paws from the cover's edge within 5 seconds constitutes catatonia.
(§5) The observer gently strokes the abdominal musculature of the mouse with thumb and forefinger. Flaccidity (or rarely, tenseness) is recorded.
(§6) The mouse is gently swung by the tail toward a horizontal 12 gauge wire tautly stretched 25 cm above the bench. After the mouse grasps the wire with its forepaws, its posterior end is held directly below the wire. A normal mouse grasps the wire with its forepaws and immediately lifts its hind limbs to the wire. Failure to grasp the wire with the forepaws in both trials constitutes loss of the grip reflex; failure to lift the hind limbs to grasp the wire with at least one hind paw within 5 seconds constitutes loss of the lift reflex.
(§7) The mouse is placed on the bar 10-20 cm horizontally and 9 cm vertically from a Galton whistle adjusted for 13 kc (5 mm on the whistle scale) and is subjected to several short bursts of sound.
(§8) An effective tranquilizer should induce little or no tremor response. […] Tremors include fine or coarse and intermittent or continuous tremors.

female white mice = assay: animal or person; settings: Mus musculus, po, oral, mice
Protocol: as §1, §2, §3, §4, §5, §6, §7, §8

[1] = system: phenylquinone-induced writhing; assay: Phenylquinone writhing test (analgesia); format: in vivo, mouse (Carworth CF1 S female); settings: Mus musculus
Description: This mouse test is predictive of analgesic response in humans. [E. Siegmund, R. Cadmus and G. Lee, Proc. Soc.
ED50 values were obtained graphically from the data.

[2] = read-out: Catatonia ED50, Table 1
[3] = read-out: Exploratory Loss Visual ED50, Table 1
[4] = read-out: Muscle Tone ED50, Table 1
[5] = read-out: Reflexes Grip ED50, Table 1
[6] = read-out: Reflexes Lift ED50, Table 1
[7] = read-out: Reflexes Pinna ED50, Table 1

Structure (SMILES) | ED50 (in vivo) [mg/kg] | LD50 at 24 h (in vivo) [mg/kg] | ED50 (female white mice; [2]) [mg/kg] | ED50 (female white mice; [3]) [mg/kg] | ED50 (female white mice; [4]) [mg/kg] | ED50 (female white mice; read-out: Ptosis ED50, Table 1) [mg/kg] | ED50 (female white mice; [5]) [mg/kg] | ED50 (female white mice; [6]) [mg/kg] | ED50 (female white mice; [7]) [mg/kg] | ED50 ([1]; po, Table 1, mice) [mg/kg] | ED50 (in vivo; Tremors ED50, Table 1, mice) [mg/kg] | ED50 ([1]; Table 1, oral, mice) [mg/kg]
c1ccc2c(c1)[C@@H]1C[C@@]3(CN(C[C@H]4C[C@H]5CC[C@@H]4C5)C[C@H]23)c2ccccc21 (relative stereo) [Example 36, 2-(2-Endo-bicyclo[2.2.1]heptylmethyl)-2,3,8,12b-tetrahydro-1H-3a,8-methanodibenzo[3,4:6,7]cyclohepta[1,2-c]pyrrole] | > 324 | > 324 | 60 | 60 | 60 | 20 | > 324 | 60 | 100 | 9.8 |  | 
C1=C[C@@H]2C[C@H]1C[C@H]2CN1C[C@@H]2c3ccccc3[C@@H]3C[C@@]2(C1)c1ccccc13 (relative stereo) [Example 37, 2-(2-Exo-bicyclo[2.2.1]hept-5-enylmethyl)-2,3,8,12b-tetrahydro-1H-3a,8-methanodibenzo[3,4:6,7]cyclohepta[1,2-c]pyrrole] | > 324 | 300 | 7 | 7 | 4 | ≤ 4 | 200 | 12 | 20 | 2.4 |  | 
C1=C[C@@H]2C[C@H]1C[C@@H]2CN1C[C@@H]2c3ccccc3[C@@H]3C[C@@]2(C1)c1ccccc13 (relative stereo) [Example 38, 2-(2-Endo-bicyclo[2.2.1]hept-5-enylmethyl)-2,3,8,12b-tetrahydro-1H-3a,8-methanodibenzo[3,4:6,7]cyclohepta[1,2-c]pyrrole] | > 324 | > 324 | 100 | 200 | 200 | 60 | > 324 | 200 | > 324 | 31 |  | 
c1ccc(CCN2C[C@@H]3c4ccccc4[C@@H]4C[C@@]3(C2)c2ccccc24)cc1 (relative stereo) [Example 39, 2-(2-Phenylethyl)-2,3,8,12b-tetrahydro-1H-3a,8-methanodibenzo[3,4:6,7]cyclohepta[1,2-c]pyrrole] | 300 | > 324 | 100 | 200 | > 324 | 200 | > 324 | 100 | 100 | 22 |  | 
c1ccc(OCCN2C[C@@H]3c4ccccc4[C@@H]4C[C@@]3(C2)c2ccccc24)cc1 (relative stereo) [Example 40, 2-(2-Phenoxyethyl)-2,3,8,12b-tetrahydro-1H-3a,8-methanodibenzo[3,4:6,7]cyclohepta[1,2-c]pyrrole] | > 324 | > 324 | 12 | 60 | 20 | 7 | > 324 | 20 | 12 | 5.3 |  | 
COCCN1C[C@@H]2c3ccccc3[C@@H]3C[C@@]2(C1)c1ccccc13 (relative stereo) [Example 41, 2-(2-Methoxyethyl)-2,3,8,12b-tetrahydro-1H-3a,8-methanodibenzo[3,4:6,7]cyclohepta[1,2-c]pyrrole] | > 324 | 300 | 20 | 20 | 36 | 20 | 200 | 36 | 20 | 4.2 |  | 
c1coc(CN2C[C@@H]3c4ccccc4[C@@H]4C[C@@]3(C2)c2ccccc24)c1 (relative stereo) [Example 42, 2-(2-Furylmethyl)-2,3,8,12b-tetrahydro-1H-3a,8-methanodibenzo[3,4:6,7]cyclohepta[1,2-c]pyrrole] | > 324 | 300 | 36 | 60 | 20 | 20 | > 324 | 200 | 60 | 26 |  | 
c1ccc2c(c1)[C@@H]1C[C@@]3(CN(C4CC4)C[C@H]23)c2ccccc21 (relative stereo) [Example 46, 2-Cyclopropyl-2,3,8,12b-tetrahydro-1H-3a,8-methanodibenzo[3,4:6,7]cyclohepta[1,2-c]pyrrole] |  | > 324 | 200 | 200 | 200 | 60 | 300 | 200 | 300 |  | > 324 | 90
c1ccc2c(c1)[C@@H]1C[C@@]3(CN(C4CCC4)C[C@H]23)c2ccccc21 (relative stereo) [Example 47, 2-Cyclobutyl-2,3,8,12b-tetrahydro-1H-3a,8-methanodibenzo[3,4:6,7]cyclohepta[1,2-c]pyrrole] |  | > 324 | 60 | 60 | 60 | 36 | 200 | 60 | 36 |  | > 324 | 9.6
c1ccc2c(c1)[C@@H]1C[C@@]3(CN(C4CCCC4)C[C@H]23)c2ccccc21 (relative stereo) [Example 48, 2-Cyclopentyl-2,3,8,12b-tetrahydro-1H-3a,8-methanodibenzo[3,4:6,7]cyclohepta[1,2-c]pyrrole] |  | > 324 | 36 | 100 | 100 | 60 | 200 | 60 | 60 |  | > 324 | 38
CC(C)N1C[C@@H]2c3ccccc3[C@@H]3C[C@@]2(C1)c1ccccc13 (relative stereo) [Example 49, 2-Isopropyl-2,3,8,12b-tetrahydro-1H-3a, 8-methanodibenzo[3,4:6,7]cyclohepta[1,2-c]pyrrole] |  | 200 | 60 | 60 | 7 | 12 | 200 | 36 | 20 |  | > 324 | 10.8
c1ccc2c(c1)[C@@H]1C[C@@]3(CN(CC4C5CC6CC(C5)CC4C6)C[C@H]23)c2ccccc21 (relative stereo) [Example 53, 2-(2-Adamantylmethyl)-2,3,8,12b-tetrahydro-1H-3a,8-methanodibenzo[3,4:6,7]cyclohepta[1,2-c]pyrrole] | > 524 | > 324 | 36 | 60 | 100 | 300 | > 324 | 300 | 100 | 94 |  | 
